# Assays:
# [1] = molecular target: Cyclin-dependent kinase 18 (Homo sapiens) (UniProt Q07002); assay: Inhibition of PCTK3 (unknown origin) assessed as residual activity at 1000 nM by KINOMEscan analysis relative to control
# [2] = molecular target: Dual specificity tyrosine-phosphorylation-regulated kinase 1B (Homo sapiens) (UniProt Q9Y463); assay: Inhibition of DYRK1B (unknown origin) assessed as residual activity at 1000 nM by KINOMEscan analysis relative to control
# [3] = molecular target: T1, Protein kinase C epsilon type (Homo sapiens) (UniProt Q02156); assay: Inhibition of PRKCE (unknown origin) assessed as residual activity at 1000 nM by KINOMEscan analysis relative to control
# T1 sequence (whole entry): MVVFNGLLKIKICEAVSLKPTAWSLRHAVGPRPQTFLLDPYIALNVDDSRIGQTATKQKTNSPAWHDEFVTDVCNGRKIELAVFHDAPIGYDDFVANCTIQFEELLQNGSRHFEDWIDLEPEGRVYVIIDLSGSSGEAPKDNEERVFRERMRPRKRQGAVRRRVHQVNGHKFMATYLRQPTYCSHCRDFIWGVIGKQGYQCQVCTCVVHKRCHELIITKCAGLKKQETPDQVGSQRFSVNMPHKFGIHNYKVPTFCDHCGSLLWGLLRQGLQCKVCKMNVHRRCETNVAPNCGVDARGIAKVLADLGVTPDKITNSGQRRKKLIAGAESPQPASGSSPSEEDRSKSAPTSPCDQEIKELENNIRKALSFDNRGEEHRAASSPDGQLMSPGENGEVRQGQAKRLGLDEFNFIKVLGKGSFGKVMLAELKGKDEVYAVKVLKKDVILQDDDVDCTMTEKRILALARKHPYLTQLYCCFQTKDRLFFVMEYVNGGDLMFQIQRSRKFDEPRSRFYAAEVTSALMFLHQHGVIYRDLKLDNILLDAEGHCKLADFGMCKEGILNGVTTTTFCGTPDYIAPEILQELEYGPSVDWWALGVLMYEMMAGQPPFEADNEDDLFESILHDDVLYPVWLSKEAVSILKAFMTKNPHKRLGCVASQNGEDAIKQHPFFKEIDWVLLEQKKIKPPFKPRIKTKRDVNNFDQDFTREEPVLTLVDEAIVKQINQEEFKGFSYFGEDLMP
# [4] = molecular target: Tyrosine-protein kinase receptor UFO (Homo sapiens) (UniProt P30530); assay: Inhibition of AXL (unknown origin) assessed as residual activity at 1000 nM by KINOMEscan analysis relative to control
# Chain of Tyrosine-protein kinase receptor UFO (Homo sapiens) (P30530 whole entry): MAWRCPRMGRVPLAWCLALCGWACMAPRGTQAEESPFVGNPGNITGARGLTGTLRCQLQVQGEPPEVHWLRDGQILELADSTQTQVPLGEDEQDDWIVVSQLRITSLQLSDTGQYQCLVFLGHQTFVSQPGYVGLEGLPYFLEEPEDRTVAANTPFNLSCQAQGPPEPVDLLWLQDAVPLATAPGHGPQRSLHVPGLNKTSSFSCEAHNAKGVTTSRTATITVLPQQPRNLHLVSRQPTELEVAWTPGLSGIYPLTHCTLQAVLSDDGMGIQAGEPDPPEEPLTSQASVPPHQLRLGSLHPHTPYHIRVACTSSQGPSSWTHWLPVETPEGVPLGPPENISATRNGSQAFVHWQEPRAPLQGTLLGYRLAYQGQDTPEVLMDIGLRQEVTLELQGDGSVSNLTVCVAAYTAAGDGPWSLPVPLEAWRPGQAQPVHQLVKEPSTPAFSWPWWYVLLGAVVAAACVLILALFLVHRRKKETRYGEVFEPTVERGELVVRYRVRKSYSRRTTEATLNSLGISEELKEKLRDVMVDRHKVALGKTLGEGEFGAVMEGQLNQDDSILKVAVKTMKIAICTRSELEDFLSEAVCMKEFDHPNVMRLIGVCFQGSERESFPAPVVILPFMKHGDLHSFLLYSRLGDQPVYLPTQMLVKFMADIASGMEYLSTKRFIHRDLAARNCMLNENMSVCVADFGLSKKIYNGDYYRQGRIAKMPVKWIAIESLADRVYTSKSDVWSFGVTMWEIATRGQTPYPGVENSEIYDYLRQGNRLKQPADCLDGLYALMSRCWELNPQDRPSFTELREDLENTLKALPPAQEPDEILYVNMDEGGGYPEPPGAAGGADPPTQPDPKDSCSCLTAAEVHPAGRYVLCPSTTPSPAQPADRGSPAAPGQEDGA
# [5] = molecular target: Calcium/calmodulin-dependent protein kinase kinase 1 (Homo sapiens) (UniProt Q8N5S9); assay: Inhibition of CAMKK1 (unknown origin) assessed as residual activity at 1000 nM by KINOMEscan analysis relative to control
# Chain of Calcium/calmodulin-dependent protein kinase kinase 1 (Homo sapiens) (Q8N5S9 whole entry, looked up): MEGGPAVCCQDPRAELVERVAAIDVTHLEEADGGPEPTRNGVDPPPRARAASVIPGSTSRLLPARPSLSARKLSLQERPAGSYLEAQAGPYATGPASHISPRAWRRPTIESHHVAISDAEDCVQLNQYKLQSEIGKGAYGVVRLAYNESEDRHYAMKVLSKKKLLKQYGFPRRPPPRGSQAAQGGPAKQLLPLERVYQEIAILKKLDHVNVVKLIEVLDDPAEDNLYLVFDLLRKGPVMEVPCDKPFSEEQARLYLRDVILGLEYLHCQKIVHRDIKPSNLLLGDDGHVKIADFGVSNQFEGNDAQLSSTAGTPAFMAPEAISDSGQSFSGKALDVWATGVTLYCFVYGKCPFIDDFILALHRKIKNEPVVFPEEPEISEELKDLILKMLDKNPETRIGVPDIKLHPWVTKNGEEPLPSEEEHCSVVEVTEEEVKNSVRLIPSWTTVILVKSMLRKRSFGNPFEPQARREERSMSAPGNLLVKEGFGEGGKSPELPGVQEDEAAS
# [6] = molecular target: MAP kinase-activated protein kinase 2 (Homo sapiens) (UniProt P49137); assay: Inhibition of MAPKAPK2 (unknown origin) assessed as residual activity at 1000 nM by KINOMEscan analysis relative to control
# Chain of MAP kinase-activated protein kinase 2 (Homo sapiens) (P49137 whole entry, looked up): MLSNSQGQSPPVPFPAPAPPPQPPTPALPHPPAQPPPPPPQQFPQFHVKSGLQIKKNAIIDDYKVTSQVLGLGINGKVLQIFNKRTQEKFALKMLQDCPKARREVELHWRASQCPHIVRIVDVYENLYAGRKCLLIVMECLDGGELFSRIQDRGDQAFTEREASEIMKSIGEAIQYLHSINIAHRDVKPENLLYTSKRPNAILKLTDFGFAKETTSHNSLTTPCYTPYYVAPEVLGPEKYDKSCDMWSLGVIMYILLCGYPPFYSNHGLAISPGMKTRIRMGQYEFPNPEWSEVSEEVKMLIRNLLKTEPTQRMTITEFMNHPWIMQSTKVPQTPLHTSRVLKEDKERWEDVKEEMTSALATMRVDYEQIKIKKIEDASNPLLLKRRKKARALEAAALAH
# [7] = molecular target: Tyrosine-protein kinase Blk (Homo sapiens) (UniProt P51451); assay: Inhibition of BLK (unknown origin) assessed as residual activity at 1000 nM by KINOMEscan analysis relative to control
# Chain of Tyrosine-protein kinase Blk (Homo sapiens) (P51451 2-505 limits assumed): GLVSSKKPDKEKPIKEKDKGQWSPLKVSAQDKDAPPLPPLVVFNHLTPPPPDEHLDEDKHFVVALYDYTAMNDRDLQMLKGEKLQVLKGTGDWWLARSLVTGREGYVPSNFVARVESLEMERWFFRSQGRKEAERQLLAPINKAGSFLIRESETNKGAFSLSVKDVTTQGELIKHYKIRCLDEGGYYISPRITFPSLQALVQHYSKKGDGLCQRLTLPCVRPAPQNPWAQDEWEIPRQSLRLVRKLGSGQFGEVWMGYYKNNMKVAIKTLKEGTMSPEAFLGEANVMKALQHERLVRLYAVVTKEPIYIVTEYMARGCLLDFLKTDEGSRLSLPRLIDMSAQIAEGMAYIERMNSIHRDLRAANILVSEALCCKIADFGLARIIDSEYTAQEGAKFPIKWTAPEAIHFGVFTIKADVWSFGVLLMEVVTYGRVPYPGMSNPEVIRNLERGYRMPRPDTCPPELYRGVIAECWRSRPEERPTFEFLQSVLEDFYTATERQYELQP
# [8] = molecular target: T2, Serine/threonine-protein kinase 3 (Homo sapiens) (UniProt Q13188); assay: Inhibition of MST2 (unknown origin) assessed as residual activity at 1000 nM by KINOMEscan analysis relative to control
# T2 sequence (whole entry): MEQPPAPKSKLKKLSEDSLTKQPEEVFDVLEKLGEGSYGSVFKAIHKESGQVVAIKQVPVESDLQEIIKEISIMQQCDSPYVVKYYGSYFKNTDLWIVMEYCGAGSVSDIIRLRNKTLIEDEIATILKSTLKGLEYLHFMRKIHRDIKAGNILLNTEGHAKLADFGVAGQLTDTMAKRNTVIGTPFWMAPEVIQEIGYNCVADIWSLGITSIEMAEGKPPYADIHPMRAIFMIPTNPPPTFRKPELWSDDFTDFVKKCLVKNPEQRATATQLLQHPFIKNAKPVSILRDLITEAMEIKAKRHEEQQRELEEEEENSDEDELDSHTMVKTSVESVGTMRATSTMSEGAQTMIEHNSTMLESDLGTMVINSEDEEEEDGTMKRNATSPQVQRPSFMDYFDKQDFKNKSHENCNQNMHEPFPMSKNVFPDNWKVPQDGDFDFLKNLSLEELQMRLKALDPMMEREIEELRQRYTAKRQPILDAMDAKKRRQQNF
# [9] = test system: Epidermal growth factor receptor (Homo sapiens), P00533 [L858R]; assay: Inhibition of EGFR L858R mutant (unknown origin) assessed as residual activity at 1000 nM by KINOMEscan analysis relative to control
# [10] = molecular target: Phosphorylase b kinase gamma catalytic chain, skeletal muscle/heart isoform (Homo sapiens) (UniProt Q16816); assay: Inhibition of PHKG1 (unknown origin) assessed as residual activity at 1000 nM by KINOMEscan analysis relative to control
# Chain of Phosphorylase b kinase gamma catalytic chain, skeletal muscle/heart isoform (Homo sapiens) (Q16816 whole entry, looked up, canonical isoform): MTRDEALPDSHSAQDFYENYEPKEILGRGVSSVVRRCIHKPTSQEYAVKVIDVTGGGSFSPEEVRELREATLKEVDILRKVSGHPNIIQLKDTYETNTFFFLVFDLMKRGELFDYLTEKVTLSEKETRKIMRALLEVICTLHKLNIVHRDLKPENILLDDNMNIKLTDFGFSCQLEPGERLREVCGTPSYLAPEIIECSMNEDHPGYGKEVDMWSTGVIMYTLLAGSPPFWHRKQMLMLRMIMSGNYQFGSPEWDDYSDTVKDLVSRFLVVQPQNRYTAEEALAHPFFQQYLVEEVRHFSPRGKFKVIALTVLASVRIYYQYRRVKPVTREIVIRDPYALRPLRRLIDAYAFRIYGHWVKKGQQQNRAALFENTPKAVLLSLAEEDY
# [11] = molecular target: T3, Cyclin-dependent kinase 11A (Homo sapiens) (UniProt Q9UQ88); assay: Inhibition of CDC2L2 (unknown origin) assessed as residual activity at 1000 nM by KINOMEscan analysis relative to control
# T3 sequence (whole entry): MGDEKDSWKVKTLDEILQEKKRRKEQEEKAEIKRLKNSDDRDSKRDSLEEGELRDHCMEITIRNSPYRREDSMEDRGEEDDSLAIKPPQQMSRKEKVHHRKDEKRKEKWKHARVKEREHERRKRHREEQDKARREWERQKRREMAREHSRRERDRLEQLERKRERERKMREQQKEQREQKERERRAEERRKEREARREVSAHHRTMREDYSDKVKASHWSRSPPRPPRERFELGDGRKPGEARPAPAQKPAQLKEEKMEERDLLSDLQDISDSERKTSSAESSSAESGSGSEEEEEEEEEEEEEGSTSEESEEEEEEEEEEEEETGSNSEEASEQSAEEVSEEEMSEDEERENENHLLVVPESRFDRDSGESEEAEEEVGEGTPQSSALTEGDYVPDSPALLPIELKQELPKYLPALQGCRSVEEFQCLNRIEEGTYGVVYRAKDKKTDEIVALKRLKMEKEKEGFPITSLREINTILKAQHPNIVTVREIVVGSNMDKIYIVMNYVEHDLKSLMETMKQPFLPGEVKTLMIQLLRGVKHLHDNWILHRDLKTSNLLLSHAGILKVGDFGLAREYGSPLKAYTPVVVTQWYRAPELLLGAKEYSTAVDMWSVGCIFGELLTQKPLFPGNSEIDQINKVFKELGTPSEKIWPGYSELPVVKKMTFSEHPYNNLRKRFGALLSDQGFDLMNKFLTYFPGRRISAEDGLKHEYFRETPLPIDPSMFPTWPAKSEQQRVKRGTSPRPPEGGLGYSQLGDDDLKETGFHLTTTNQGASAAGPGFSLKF
# [12] = molecular target: Mitogen-activated protein kinase kinase kinase 1 (Homo sapiens) (UniProt Q13233); assay: Inhibition of MAP3K1 (unknown origin) assessed as residual activity at 1000 nM by KINOMEscan analysis relative to control
# Chain of Cyclin-dependent kinase 18 (Homo sapiens) (Q07002 whole entry): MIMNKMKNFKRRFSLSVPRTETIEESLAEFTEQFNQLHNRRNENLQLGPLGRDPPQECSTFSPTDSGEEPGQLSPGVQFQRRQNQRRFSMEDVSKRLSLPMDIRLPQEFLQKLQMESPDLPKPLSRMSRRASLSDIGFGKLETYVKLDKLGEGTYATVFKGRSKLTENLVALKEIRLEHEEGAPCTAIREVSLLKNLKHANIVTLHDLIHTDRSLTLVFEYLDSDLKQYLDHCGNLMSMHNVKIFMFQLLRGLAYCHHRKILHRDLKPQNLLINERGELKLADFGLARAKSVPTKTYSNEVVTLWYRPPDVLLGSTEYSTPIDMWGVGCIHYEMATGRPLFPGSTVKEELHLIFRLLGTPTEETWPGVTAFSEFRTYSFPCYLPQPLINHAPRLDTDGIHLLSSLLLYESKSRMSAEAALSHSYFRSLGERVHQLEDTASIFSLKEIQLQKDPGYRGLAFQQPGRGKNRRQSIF
# Chain of Dual specificity tyrosine-phosphorylation-regulated kinase 1B (Homo sapiens) (Q9Y463 whole entry, looked up): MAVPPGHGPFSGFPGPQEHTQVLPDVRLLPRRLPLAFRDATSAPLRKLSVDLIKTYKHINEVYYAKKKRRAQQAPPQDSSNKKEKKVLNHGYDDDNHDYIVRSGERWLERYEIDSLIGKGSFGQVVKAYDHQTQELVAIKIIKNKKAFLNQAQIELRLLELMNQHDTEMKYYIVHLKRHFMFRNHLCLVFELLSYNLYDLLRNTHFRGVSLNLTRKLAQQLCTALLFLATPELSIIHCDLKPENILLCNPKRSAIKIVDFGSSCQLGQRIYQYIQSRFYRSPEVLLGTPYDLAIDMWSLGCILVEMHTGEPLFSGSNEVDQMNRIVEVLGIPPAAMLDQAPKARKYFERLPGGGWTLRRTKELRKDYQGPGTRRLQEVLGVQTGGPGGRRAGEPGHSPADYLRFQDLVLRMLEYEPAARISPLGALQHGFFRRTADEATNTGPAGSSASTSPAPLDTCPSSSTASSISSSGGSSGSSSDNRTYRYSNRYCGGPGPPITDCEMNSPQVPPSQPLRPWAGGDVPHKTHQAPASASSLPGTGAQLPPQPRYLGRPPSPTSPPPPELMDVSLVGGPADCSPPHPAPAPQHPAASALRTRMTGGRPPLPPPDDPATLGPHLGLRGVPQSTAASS
Compound,Activity [1],Activity [2],Activity [3],Activity [4],Activity [5],Activity [6],Activity [7],Activity [8],Activity [9],Activity [10],Activity [11],Activity [12]
COc1cc2nc(C)nc(N[C@H](C)c3cccc(-c4cn[nH]c4)c3)c2cc1OC,99%,100%,80%,93%,73%,99%,100%,79%,100%,100%,100%,77%
COc1cc2ncnc(N[C@H](C)c3cccc4ccccc34)c2cc1OC,100%,50%,95%,90%,97%,100%,53%,96%,1.7%,100%,99%,100%

# Reference: ChEMBL document CHEMBL5678818, “Discovery of potent SOS1 inhibitors that block RAS activation via disruption of the RAS-SOS1 interaction” (Proc Natl Acad Sci U S A, 2019)
